Data taken from ChEMBL document CHEMBL1144564, “Discovery of Helicobacter pylori shikimate kinase inhibitors: bioassay and molecular modeling” (Bioorg Med Chem, 2007).

Columns and labels:
[1] = target: T1, Shikimate kinase (Helicobacter pylori (strain ATCC 700392 / 26695) (Campylobacterpylori), UniProt P56073); test: Binding affinity to Helicobacter pylori SS1 recombinant shikimate kinase expressed in BL21 (DE3) cells by SPR assay
[2] = target: T1, Shikimate kinase; test: Inhibition of Helicobacter pylori SS1 recombinant shikimate kinase expressed in BL21 (DE3) cells in presence of varying MgATP levels by double coupled assay; format: cell-based
[3] = target: T1, Shikimate kinase; test: Inhibition of Helicobacter pylori SS1 recombinant shikimate kinase expressed in BL21 (DE3) cells in presence of varying shikimate levels by double coupled assay; format: cell-based
[4] = target: T1, Shikimate kinase; test: Inhibition of Helicobacter pylori SS1 recombinant shikimate kinase expressed in BL21 (DE3) cells by double coupled assay; format: cell-based

T1 sequence (P56073 whole entry): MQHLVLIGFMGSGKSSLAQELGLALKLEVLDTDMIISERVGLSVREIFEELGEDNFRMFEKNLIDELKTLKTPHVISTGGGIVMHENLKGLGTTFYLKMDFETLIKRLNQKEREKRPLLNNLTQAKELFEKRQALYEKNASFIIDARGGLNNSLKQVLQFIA

Structure (SMILES)	Kd [1] [µM]	Ki [2] [µM]	Ki [3] [µM]	IC50 [4] [µM]	Ki [4] [µM]
COc1cc(C=O)ccc1OCc1ccccc1COc1ccc(/C=C2/SC(=S)NC2=O)cc1OC	4.39	7.18	10.7	5.5	9.48
O=C1NN(c2ccc(Cl)c(Cl)c2)C(=O)/C1=C\c1ccc(-c2ccc(Br)cc2C(=O)O)o1	3.74	7.92		6.4	2.19
